For 73 molecules, outcome, EC50 and IC50 results are on record in PubChem BioAssay AID179 (DTP/NCI, 2004).

The assay relates to CEM cells HIV-1 protection, formazan growth assay. In words: NCI AIDS Antiviral Assay. To be noted: for pIC50: measured here: growth of uninfected CEM cells. A digest of the protocol: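 Five concentrations of each compound were applied to infected and uninfected human CEM cells. Protection from HIV-1 was judged from growth measured with a soluble formazan assay.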

pEC50, pIC50: −log10 of the molar value. The source made the active and inactive calls.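 How the source made its calls: active means compounds giving half or more protection of infected cells from virus-caused growth loss, again on retest; inactive means the rest.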 Where a SMILES comes first, the peptide text is derived from it. [ ]: non-standard residue; d: D form. The star is where a group is joined. NMeAc5c = CNC1(C(=O)O)CCCC1; Boc = CC(C)(C)OC(=O)*; OBn = c1ccc(CO*)cc1

In the case of `CCOC(=O)/C(=C/c1ccc(N(CCC#N)CCC#N)cc1C)NC(=O)/C=C/c1ccccc1`, the result was inactive.
Regarding `COc1ccc(/C=C/C(=O)c2c(-c3ccccc3)nn(C)c(=O)c2N2CCCCC2)cc1`, the pEC50 is 4.80 and the pIC50 was 4.72.
Taken in the same sequence, the figures for `CC1(S)CC2C(CC1Sc1ccccc1)C2(C)C` (stereo not given) were less than 4.59 and less than 4.59.
The matching figures for `CCCCCCCCS(=O)(=O)c1ccc(O)c(C(=O)Nc2ccc(C(F)(F)F)cc2)c1`: less than 4.39 and 5.80.
Taken in the same sequence, the figures for `CC#CCCC1CCCCNC1=O` (stereo not given) were less than 3.86 and less than 3.86.
With `COc1c(NC(=O)CC(C)=O)[c]([Hg][O]C(C)=O)c(OC)c(Cl)[c]1[Hg][O]C(C)=O`, the pEC50 was less than 6.16 and the pIC50 was less than 6.16.
As to `FC(F)(F)c1nc(-c2ccccc2)oc1Sc1oc(-c2ccccc2)nc1C(F)(F)F`, the result was inactive.
`NCCCCNCCCN1CCOC1=O`: the pEC50 is less than 3.70 and the pIC50 is less than 3.70.
`CC1NCc2c1[nH]cnc2=S` (stereo not given): the pEC50 is less than 3.59 and the negative logarithm of the IC50 (pIC50) is less than 3.59.
Take `COC(=O)C1ON(c2ccccc2)C2c3ccccc3-c3ccccc3C12` (stereo not given): the pEC50 is less than 5.25 and the negative-log IC50 (pIC50) was less than 5.25.
In the case of `c1cc(-c2ccc(-c3ccsc3)s2)cs1`, the pEC50 is less than 3.70 and the negative-log IC50 (pIC50) is less than 3.70.
On to `Brc1ccc(-c2cnc3nc4[nH]c5ccccc5c4nn23)cc1`, for which the pEC50 was less than 3.70 and the negative-log IC50 (pIC50) is 3.91.
On to `CC[n+]1[b-](C(C)(C)C)n(/N=C(\C)C(C)(C)C)[b-](C(C)(C)C)[n+]1CC`, for which the pEC50 was less than 3.70 and the negative-log IC50 (pIC50) was 4.50.
For the molecule `CCC(N)Cc1c[nH]c2ccccc12` (stereo not given), the pEC50 is less than 3.70 and the pIC50 is less than 3.70.
As for `O=c1onc2n1-c1ccc(Cl)cc1C(=S)N1CSCC21` (stereo not given), the pEC50 is less than 3.70 and the negative-log IC50 (pIC50) was 4.49.
As to `CC(=O)OCC1OC(N2C(c3ccccc3)=CC(c3ccco3)C(C#N)=C2S)C(OC(C)=O)C(OC(C)=O)C1OC(C)=O` (stereo not given), the pEC50 is 3.75 and the negative logarithm of the IC50 (pIC50) was less than 3.70.
On to `O=[P+](O)c1ccccn1`, for which the result was inactive.
Turning to `C=CCOc1ccc(C2(c3ccc(OCC=C)cc3)C(=O)Nc3ccccc32)cc1`, the pEC50 is less than 3.70 and the negative-log IC50 (pIC50) was 4.35.
On to `CSc1nc(C)c(CCOC(C)=O)c(N=P(c2ccccc2)(c2ccccc2)c2ccccc2)n1`, for which the pEC50 is less than 3.70 and the negative logarithm of the IC50 (pIC50) is 4.54.
The matching figures for `CCCC1(c2ccccc2)Oc2ccccc2-n2cccc2C1=O` (stereo not given): less than 3.70 and 4.39.
For the molecule `N#CC1=C(N)N(c2ccccc2)C(c2ccco2)C1(C#N)C#N` (stereo not given), the pEC50 is less than 3.70 and the negative-log IC50 (pIC50) was 5.00.
Turning to `N#C/C(=C/n1c(=S)[nH]c2ccc([N+](=O)[O-])cc21)C(N)=O`, the pEC50 was less than 3.70 and the pIC50 was less than 3.70.
For the molecule `O=C(c1ccc(Cl)cc1)c1c(O)c2ccccc2oc1=O`, the pEC50 was less than 3.70 and the pIC50 is less than 3.70.
On to `COc1cc(C2=NC(C(C)C)CO2)c(OC)c(OC)c1OC` (stereo not given), for which the pEC50 was less than 4.36 and the negative logarithm of the IC50 (pIC50) was less than 4.36.
For `CSc1c(C#N)c2n(c3ccccc13)c1ccccc1[n+]2C`, the pEC50 was less than 4.00 and the negative logarithm of the IC50 (pIC50) is 5.17.
Taken in the same sequence, the figures for `CCC[CH2][Sn]([Cl])([CH2]CCC)[S]C(=S)NCCNC(=S)[S][Sn]([Cl])([CH2]CCC)[CH2]CCC` were less than 5.70 and 6.99.
As for `CCC(C)C(=O)O[C@H]1C(=O)O[C@@H]2C[C@H]3C(C)=CC(=O)[C@@H](O)[C@]3(C)[C@H]3[C@@H](O)[C@H](O)[C@@]4(C)OC[C@]32[C@@H]14` (stereo not given in full), the pEC50 is less than 5.28 and the pIC50 is 8.05.
The matching figures for `N=C1SC2CCCCCCC2S1` (stereo not given): less than 3.70 and less than 3.70.
In the case of `CC(C)(O)/C=C\P(C)(=O)c1ccccc1` (stereo not given), the pEC50 is less than 3.70 and the pIC50 is less than 3.70.
As to `C#CC[N+](C)(CC#C)CC#C`, the result was inactive.
`Nc1ccc(/C=C/c2ccc3ncccc3c2)cc1`: the pEC50 was 7.20 and the pIC50 is less than 3.70.
Take `O=C(O)c1cnnc2ccccc12`: the pEC50 is less than 2.84 and the pIC50 is less than 2.84.
Turning to `CSc1nc(N)c2c(n1)N(C)C=NS2(=O)=O`, the pEC50 is less than 4.55 and the negative-log IC50 (pIC50) is less than 4.55.
Regarding `Cc1ccc(N2C(=O)C3c4[nH]c5ccccc5c4C4CCC(C(C)(C)C)CC4C3C2=O)cc1` (stereo not given), the pEC50 is less than 3.70 and the negative logarithm of the IC50 (pIC50) was 4.45.
Taken in the same sequence, the figures for `Cn1cc(NC(=O)c2cc(NC(=O)CN=C(N)N)cn2C)cc1C(=O)NCCC(=N)N` were less than 3.70 and less than 3.70.
Taken in the same sequence, the figures for `CN(C(=O)C(Cc1ccccc1)NC(=O)OC(C)(C)C)C1(C(=O)NC(Cc2ccccc2)C(=O)OCc2ccccc2)CCCC1` (stereo not drawn) (Boc-Phe-[NMeAc5c]-Phe-OBn; configuration not given here) were less than 3.70 and 4.96.
Take `O=C(O)COc1ccc(O)c2c1C(=O)CCCC2=O`: the outcome was inactive.
With `CC(=O)OC1=C(c2ccccc2)c2ccccc2OC1`, the pEC50 was less than 4.57 and the pIC50 was less than 4.57.
With `COc1ccc(Oc2nc3c(N)cc(C(F)(F)F)cc3nc2-c2ccccc2)cc1`, the pEC50 was less than 4.00 and the negative-log IC50 (pIC50) was 4.46.
`O=C1Nc2ccccc2NC1C1OC(c2ccccc2)=CC1=O` (stereo not given): the pEC50 was less than 3.70 and the negative-log IC50 (pIC50) was 4.01.
As to `O=c1oc2ccccc2c2nc3ccccc3cc12`, the outcome was inactive.
Consider `CC1(C)Oc2ncnc(N)c2C1c1ccccc1` (stereo not given), for which the pEC50 is less than 2.99 and the pIC50 was 3.34.
Taken in the same sequence, the figures for `COc1ccc(CCN2CCc3c(C)c(C#N)c4nc5ccccc5n4c32)cc1OC` were less than 3.70 and 4.27.
As for `O=c1oc2c/c(=C\c3ccc([N+](=O)[O-])cc3)c(=O)c3cccc1c3-2`, the pEC50 was less than 3.70 and the pIC50 is 4.51.
Taken in the same sequence, the figures for `CCOC(=O)/C(=C\c1ccc(Br)cc1)[Se]c1ccccc1` were less than 4.20 and less than 4.20.
As to `COc1ccc2nc3cc(Cl)ccc3c(Nc3ccc(S(=O)(=O)Nc4nccs4)cc3)c2c1`, the pEC50 is less than 5.01 and the negative logarithm of the IC50 (pIC50) was less than 5.01.
For the molecule `O=C(Nc1cccc(-c2nc3ccccc3[nH]2)c1)c1ccc(C(=O)Nc2cccc(-c3nc4ccccc4[nH]3)c2)cc1`, the pEC50 was less than 3.70 and the negative logarithm of the IC50 (pIC50) was 4.04.
As for `CCC12C=CCN(CCc3c([nH]c4ccccc34)/C=C\1)C2` (stereo not given), the pEC50 is less than 3.53 and the negative logarithm of the IC50 (pIC50) is less than 3.53.
Take `CCN(CC)CCOCCn1c2c(c3ccccc31)CCCC2`: the pEC50 was less than 3.70 and the negative logarithm of the IC50 (pIC50) was 4.51.
For the molecule `CC(=O)OCCOCN1C(=O)CC(=O)NC1=O`, the pEC50 was less than 3.70 and the pIC50 is less than 3.70.
On to `Cc1ccc2c(n1)C(N1CCCC1)=CC(=O)C2=O`, for which the outcome was inactive.
With `O=S(=O)(O)c1ccc(NNc2ccc(S(=O)(=O)O)cc2)cc1`, the outcome was inactive.
`COCCCNc1nc(N)c(C#N)c(C#N)c1C#N`: the outcome was inactive.
For the molecule `CC1CC/C(=C\c2ccc(F)cc2)C2=C1C(c1ccc(F)cc1)n1c(s/c(=C\c3ccc(Cl)cc3)c1=O)=N2` (stereo not given), the outcome was inactive.
For the molecule `CN(C)C1COC2Cc3ccccc3C1O2` (stereo not given), the pEC50 was less than 3.70 and the negative-log IC50 (pIC50) was less than 3.70.
On to `COC(=O)C(C)S(=O)(=O)O` (stereo not given), for which the pEC50 was less than 3.70 and the pIC50 is less than 3.70.
In the case of `NC(=O)c1cc(/C=C/c2ccccc2)on1`, the pEC50 is less than 3.70 and the negative logarithm of the IC50 (pIC50) is less than 3.70.
On to `CC(CN1CCCC1)C(O)(Cc1ccccc1)c1ccc(Cl)cc1` (stereo not given), for which the pEC50 is less than 3.70 and the negative logarithm of the IC50 (pIC50) was 4.51.
As to `CCC12C=CCN3CCC4(C(=C(C(=O)OC)[C@@H]1O)Nc1ccccc14)C32` (stereo not given in full), the pEC50 is less than 3.85 and the pIC50 was 5.63.
Regarding `CC(=O)C(=Cc1ccc(C=C(C(C)=O)C(C)=O)cc1)C(C)=O`, the pEC50 was less than 3.70 and the negative logarithm of the IC50 (pIC50) is 6.03.
Taken in the same sequence, the figures for `CCOC(=O)/C=C/c1cccc(C#N)c1` were less than 3.75 and 4.06.
Regarding `O=C1CCC(NC(=O)c2ccccc2)C(=O)N1` (stereo not given), the pEC50 was less than 3.70 and the pIC50 is less than 3.70.
Regarding `COc1ccc(C(=O)/C=C/c2ccc(OCC(=N)N)cc2)cc1`, the pEC50 was less than 3.70 and the pIC50 was 5.01.
Taken in the same sequence, the figures for `COc1cc(/C=C(\C#N)c2ccc([N+](=O)[O-])cc2)ccc1O` were less than 3.82 and 4.56.
Regarding `COc1ccc2c(c1)CN([C@@H](C)[C@H]1CC[C@H]3[C@@H]4CC[C@H]5C[C@@H](O)CC[C@]5(C)[C@H]4CC[C@]13C)CO2`, the pEC50 was less than 4.21 and the pIC50 is 5.50.
Taken in the same sequence, the figures for `CCOC(=O)C1C(c2ccc(OC)cc2)c2c([nH]n(-c3ccccc3)c2=O)CC1(O)OCC` (stereo not given) were less than 3.70 and 5.04.
Taken in the same sequence, the figures for `COc1ccc(COC2C(C/[N+]([O-])=N\Nc3ccc([N+](=O)[O-])cc3)OC3OC(C)(C)OC32)cc1` (stereo not given) were less than 3.70 and 4.90.
Taken in the same sequence, the figures for `Cc1cc(N=Nc2ccc(Sc3ccc(N=Nc4ccc(O)c(C(=O)O)c4)cc3)cc2)c(N)c(N=Nc2ccc(N=Nc3ccc(S(=O)(=O)O)cc3)cc2)c1N` were 5.25 and less than 4.00.
Turning to `CC1(C)[C@@H]2C[C@H]1c1cnc(-c3ccccn3)cc1[C@H]2C(O)[C@@H]1c2cc(-c3ccccn3)ncc2[C@H]2C[C@@H]1C2(C)C` (stereo not given in full), the pEC50 is less than 5.30 and the pIC50 was 6.53.
As to `CN1c2ccccc2[C@@]23CCN4CC=CC5(CCC12CC5)C43` (stereo not given in full), the pEC50 is less than 3.75 and the negative-log IC50 (pIC50) was 5.13.
Regarding `CC(=O)Nc1c(C)cc2c(nc3n2CCC3O)c1[N+](=O)[O-]` (stereo not given), the pEC50 is less than 3.70 and the pIC50 is less than 3.70.
As for `C=C=CP(=O)(c1ccccc1)c1ccccc1`, the pEC50 is less than 3.82 and the negative logarithm of the IC50 (pIC50) is 4.81.
With `Cc1cc(C)c2c(c1)sc1nncn12`, the result was inactive.

By pEC50 is commonly meant −log10 of the EC50, conventionally taken in molar units. A word on the pIC50: it is the IC50 on a negative log10 scale, so that one unit is a factor of ten. High values mean a low IC50, low ones a high IC50.
